We go through twelve compounds from PMC5985834, “A Testosterone Metabolite 19-Hydroxyandrostenedione Induces Neuroendocrine Trans-Differentiation of Prostate Cancer Cells via an Ectopic Olfactory Receptor” (Frontiers in Oncology, 2018).

Where two headings read alike, the source gives them in different places. Where a SMILES comes first, the peptide text is derived from it. [ ]: non-standard residue; d: D form.

For assay [1], the target named is T1, OR51E2 (Homo sapiens, UniProt Q9H255).
T1 construct: OR51E2 plasmid transiently transfected into Hana3A cells with CREB-luciferase reporter
T1 sequence (Q9H255 1-320): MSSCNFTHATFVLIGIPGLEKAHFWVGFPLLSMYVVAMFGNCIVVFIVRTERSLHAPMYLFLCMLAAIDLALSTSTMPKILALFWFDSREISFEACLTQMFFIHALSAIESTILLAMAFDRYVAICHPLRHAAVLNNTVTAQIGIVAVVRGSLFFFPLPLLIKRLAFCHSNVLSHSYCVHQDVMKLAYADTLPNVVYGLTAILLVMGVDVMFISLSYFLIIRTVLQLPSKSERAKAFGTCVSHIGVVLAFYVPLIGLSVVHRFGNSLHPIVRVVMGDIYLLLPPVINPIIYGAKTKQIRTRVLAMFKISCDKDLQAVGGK
Nature of the assay: cAMP CRE-luciferase reporter assay in Hana3A cells. Format: cell-based. To be noted: agonist, M10d medium, read-out: EC50 (potency) /.

The target in assay [2] is T1, OR51E2. Nature of the assay: cAMP CRE-luciferase reporter assay in Hana3A cells. To be noted: agonist, M10d medium, max conc. 10 µM, below the EC50, unreliable. Format: cell-based. An excerpt: cAMP CRE-luciferase reporter assay in Hana3A cells on OR51E2
A general note: Reporter assays use an easily measured gene product as a stand-in for the process of interest.

For the compound `NC(N)=O` [Urea], the EC50 at OR51E2 [1] (max conc. 10 mM) amounted to 23 nM. Take `C[C@@H](N)C(=O)N[C@H](C)C(=O)O` [D-Alanyl-D-alanine] (H-[dA]-[dA]-OH): the EC50 at OR51E2 [1] (max conc. 3.16 mM) was 14000 nM.

Consider `O=C(O)C(=O)CO` [Hydroxypyruvic acid], for which the EC50 at OR51E2 [1] (max conc. 316 µM) worked out at 420 nM. Regarding `COc1ccc(NC=O)c(C(=O)CCNC(C)=O)c1` [AFMK], the EC50 on OR51E2 [1] (max conc. 3.16 mM) amounted to 12000 nM. Regarding `O=C(O)[C@@H](O)CO` [L-Glyceric acid], the EC50 on OR51E2 [1] (max conc. 1 mM) was found to be 1.9 nM. Take `O=C1CCCN1` [2-Pyrrolidinone]: at OR51E2 [1] (max conc. 100 µM), the EC50 is 1.9 nM. Turning to `COc1cc(CCC(=O)CC(=O)CCc2ccc(O)c(OC)c2)ccc1O` [Tetrahydrocurcumin], the EC50 on OR51E2 [1] (max conc. 316 µM) turned out to be 570 nM. On to `C[C@]12CC[C@H]3[C@@H](CCC4=CC(=O)CC[C@@]43CO)[C@@H]1CCC2=O` [19-OH AD, 19-hydroxyandrost-4-ene-3,17-dione], for which the EC50 on OR51E2 [1] (max conc. 10 µM) turned out to be 0.15 nM. As to `CCCCCCCCCCCCCCCC(=O)O` [Palmitic acid], the EC50 at OR51E2 [1] (max conc. 1 mM) worked out at 9.8 nM.

On to `C[C@]12CC[C@@H]3c4ccc(O)cc4CC[C@H]3[C@@H]1C[C@@H](O)[C@@H]2O` [Estriol], for which the “EC50 (potency) /” value on OR51E2 [2] was 53000 nM.

With `Oc1ccc(-c2[o+]c3cc(O)cc(O)c3cc2O)cc1` [Pelargonidin], the EC50 on OR51E2 [1] (max conc. 100 µM) is 0.42 nM. For `CC(=O)N[C@@H](CCC(=O)O)C(=O)O` [N-Acetylglutamic acid], the EC50 at OR51E2 [1] (max conc. 10 µM) stood at 0.23 nM.
